Assay [1] relates to MCF7. The assay can be described thus: Antiproliferative activity against human MCF7 cells assessed as inhibition of cell growth by MTT assay. It counts as functional, cell-based.
Assay [2] relates to MDA-MB-231. Description: Antiproliferative activity against human MDA-MB-231 cells assessed as inhibition of cell growth by MTT assay. It counts as functional, cell-based. On the technique in general: Formazan colour is commonly taken as a measure of viable cells.
Assay [3] relates to MCF7. Description: Antiproliferative activity against human MCF7 cells assessed as inhibition of cell growth by [3H]thymidine incorporation assay. It counts as functional, cell-based. In general terms: Uptake of a labelled nucleoside into DNA is a usual measure of proliferation.
In assay [4] the test system is MDA-MB-231. The assay can be described thus: Antiproliferative activity against human MDA-MB-231 cells assessed as inhibition of cell growth by [3H]thymidine incorporation assay. In kind it is functional, cell-based.
Assay [5] deals with MOLT-4. Description: Antiproliferative activity against human MOLT-4 cells assessed as inhibition of cell growth incubated for 72 hrs by MTT assay. It counts as functional, cell-based. To be noted: MOLT-4, 72 h.
Assay [6] has as its system MCF7. The assay can be described thus: Cytotoxicity against human MCF7 cells assessed as inhibition of cell growth incubated for 72 hrs by MTT assay. In kind it is functional, cell-based. To be noted: MCF7, 72 h.
Assay [7] relates to HL-60. The assay can be described thus: Antiproliferative activity against human HL-60 cells assessed as inhibition of cell growth incubated for 72 hrs by MTT assay. In kind it is functional, cell-based. As to conditions: HL-60, 72 h.
Assay [8] relates to HepG2. The assay can be described thus: Antiproliferative activity against human HepG2 cells assessed as cell growth inhibition. In kind it is functional, cell-based.
Assay [9] concerns HCT-116. The assay can be described thus: Antiproliferative activity against human HCT-116 cells assessed as inhibition of cell growth. In kind it is functional, cell-based.
The subject of assay [10] is MCF7. The assay can be described thus: Antiproliferative activity against human MCF7 cells assessed as inhibition of cell growth. In kind it is functional, cell-based.
Assay [11] is described as follows: Ratio of IC50 for antiproliferative activity against human PC-3 cells assessed as inhibition of cell growth under normoxia condition to IC50 for antiproliferative activity against human PC-3 cells assessed as inhibition of cell growth under hypoxia condition. In kind it is functional.
In assay [12] the test system is PC-3. Description: Antiproliferative activity against human PC-3 cells assessed as inhibition of cell growth under hypoxia condition incubated for 72 hrs by MTT assay. It counts as functional, cell-based. As to conditions: PC-3, 72 h.
The subject of assay [13] is HL-60. The assay can be described thus: Antiproliferative activity against human HL-60 cells assessed as inhibition of cell growth under normoxia condition incubated for 72 hrs by MTT assay. In kind it is functional, cell-based. To be noted: HL-60, 72 h.
The subject of assay [14] is PC-3. Description: Antiproliferative activity against human PC-3 cells assessed as inhibition of cell growth under normoxia condition incubated for 72 hrs by MTT assay. In kind it is functional, cell-based. As to conditions: PC-3, 72 h.
In assay [15] the test system is MCF7. Description: Antiproliferative activity against human MCF7 cells assessed as inhibition of cell growth under normoxia condition incubated for 72 hrs by MTT assay. It counts as functional, cell-based. To be noted: MCF7, 72 h.
In assay [16] the test system is ECa-109 cell line. Description: Antiproliferative activity against human Eca-109 cells assessed as inhibition of cell growth under normoxia condition incubated for 72 hrs by MTT assay. In kind it is functional, cell-based. To be noted: ECa-109, 72 h.
For assay [17], the system named is HL-60. The assay can be described thus: Antiproliferative activity against human HL-60 cells assessed as inhibition of cell growth under hypoxia condition incubated for 72 hrs by MTT assay. In kind it is functional, cell-based. To be noted: HL-60, 72 h.
Assay [18] in a line: Ratio of IC50 for antiproliferative activity against human HL-60 cells assessed as inhibition of cell growth under normoxia condition to IC50 for antiproliferative activity against human HL-60 cells assessed as inhibition of cell growth under hypoxia condition. It counts as functional.
The test system of assay [19] is Bel-7402. Description: Antiproliferative activity against human Bel-7402 cells assessed as inhibition of cell growth under normoxia condition incubated for 72 hrs by MTT assay. In kind it is functional, cell-based. As to conditions: Bel-7402, 72 h.
Assay [20] can be described thus: Ratio of IC50 for antiproliferative activity against human Eca-109 cells assessed as inhibition of cell growth under normoxia condition to IC50 for antiproliferative activity against human Eca-109 cells assessed as inhibition of cell growth under hypoxia condition. It counts as functional.
For assay [21], the system named is Bel-7402. The assay can be described thus: Antiproliferative activity against human Bel-7402 cells assessed as inhibition of cell growth under hypoxia condition incubated for 72 hrs by MTT assay. To be noted: Bel-7402, 72 h. In kind it is functional, cell-based.
The test system of assay [22] is ECa-109 cell line. Description: Antiproliferative activity against human Eca-109 cells assessed as inhibition of cell growth under hypoxia condition incubated for 72 hrs by MTT assay. It counts as functional, cell-based. As to conditions: ECa-109, 72 h.
Assay [23] relates to MCF7. The assay can be described thus: Antiproliferative activity against human MCF7 cells assessed as inhibition of cell growth under hypoxia condition incubated for 72 hrs by MTT assay. In kind it is functional, cell-based. To be noted: MCF7, 72 h.
The nature of assay [24]: Ratio of IC50 for antiproliferative activity against human Bel-7402 cells assessed as inhibition of cell growth under normoxia condition to IC50 for antiproliferative activity against human Bel-7402 cells assessed as inhibition of cell growth under hypoxia condition. It counts as functional.
Assay [25] addresses T1, Interleukin-1 receptor-associated kinase 4 (Homo sapiens, UniProt Q9NWZ3).
T1 sequence (Q9NWZ3 whole entry): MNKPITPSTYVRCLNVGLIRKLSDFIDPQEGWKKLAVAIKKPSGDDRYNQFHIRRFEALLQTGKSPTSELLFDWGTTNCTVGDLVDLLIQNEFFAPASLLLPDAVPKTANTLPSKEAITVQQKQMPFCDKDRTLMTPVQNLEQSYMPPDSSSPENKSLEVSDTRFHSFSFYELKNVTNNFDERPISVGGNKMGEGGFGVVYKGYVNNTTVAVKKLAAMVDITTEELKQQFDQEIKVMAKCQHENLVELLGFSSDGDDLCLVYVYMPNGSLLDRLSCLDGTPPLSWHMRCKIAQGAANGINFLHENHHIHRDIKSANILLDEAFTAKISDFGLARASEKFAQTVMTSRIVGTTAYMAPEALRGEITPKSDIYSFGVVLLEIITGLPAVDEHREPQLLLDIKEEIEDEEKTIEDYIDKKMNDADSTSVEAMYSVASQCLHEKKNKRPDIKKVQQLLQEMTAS
The assay can be described thus: Inhibition of human GST-tagged IRAK4 incubated for 30 mins in presence of ATP by fluorescent polarization assay.

Assay [26] in a line: Ratio of IC50 for antiproliferative activity against human MCF7 cells assessed as inhibition of cell growth under normoxia condition to IC50 for antiproliferative activity against human MCF7 cells assessed as inhibition of cell growth under hypoxia condition. It counts as functional.
Assay [27] has as its system Panel NCI-60 (60 carcinoma cell lines). The assay can be described thus: Antiproliferative activity against human Panel NCI-60 (60 carcinoma cell lines) assessed as cell growth inhibition incubated for 48 hrs by SRB assay. It counts as functional.
Assay [28] deals with BT-474. Description: Antiproliferative activity against human BT-474 cells assessed as inhibition of cell growth. It counts as functional, cell-based.

The values that follow come from ChEMBL document CHEMBL5260813, “An overview on the recent developments of 1,2,4-triazine derivatives as anticancer compounds” (Eur J Med Chem, 2017).

As usually defined, the IC50 is the concentration that inhibits the measured activity by half. As for `c1ccc(-c2cc(SN3CCCC3)nnc2-c2ccccc2)cc1`, the IC50 in assay [1] is 30000 nM; in [2], 25000 nM; in [3], 15000 nM; in [4], 40000 nM.

`CSc1nnc2c(n1)-c1cccc3cccc-2c13`: the IC50 in assay [5], in assay [6] and in assay [7] was 30000 nM in each case.

In the case of `O=[N+]([O-])c1ccccc1CSc1nnc2c(n1)-c1cccc3cccc-2c13`, the IC50 in [5], in [6] and in [7] was 30000 nM throughout.

For the compound `CCSc1nnc2c(n1)-c1cccc3cccc-2c13`, the IC50 in assay [5], in assay [6] and in assay [7] was 30000 nM in each case.

`Nn1c(SC2Sc3nnc(/C=C/c4cccs4)c(=O)n3NC2=O)nnc(/C=C/c2cccs2)c1=O` (centres undefined): the IC50 in assay [8], in assay [9] and in assay [10] was 8790 nM each time.

On to `CCNc1n[n+]([O-])c2cc([N+](=O)[O-])ccc2[n+]1[O-]`, for which the “Ratio IC50” value in [11] turned out to be 1.9; in assay [18], 1.4; in assay [20] it was 2.2; in assay [24], 1.6. Further, the IC50 in assay [12], in assay [13], in assay [14], in assay [15], in assay [16] and in assay [17] was 200 nM throughout. Besides, the IC50 in [19], in assay [21], in assay [22] and in assay [23] was 200 nM each time.

For the compound `NC(=O)c1nn(CCO)cc1NC(=O)c1ccc2cnc(NC3CCCCC3N)nn12` (centres undefined), the IC50 in assay [25] amounted to 3 nM.

Consider `Clc1ccc(CSc2nnc3c(n2)-c2cccc4cccc-3c24)cc1Cl`, for which the IC50 in [5], in assay [6] and in [7] was 30000 nM throughout.

With `[O-][n+]1nc(NCc2ccccc2)[n+]([O-])c2ccc(Cl)cc21`, the “Ratio IC50” value in [26] stood at 1.1; in assay [11], 1.4; in assay [18] it was 1; in assay [20], 3.2; in assay [24], 1.8. Further, the IC50 in assay [12], in assay [13], in assay [14], in [15], in [16] and in assay [17] was 200 nM each time. Besides, the IC50 in assay [19], in assay [21], in [22] and in assay [23] was 200 nM in each case.

Turning to `c1ccc(CSc2nnc3c(n2)-c2cccc4cccc-3c24)cc1`, the IC50 in assay [5], in assay [6] and in assay [7] was 30000 nM each time.

`[O-][n+]1nc(Nc2ccccc2)[n+]([O-])c2ccc(Cl)cc21`: the “Ratio IC50” value was 3 in assay [26], 1.3 in assay [11], 6.9 in assay [18] and 2.8 in assay [20]. The IC50 in [12], in assay [13], in [14], in [15], in assay [16] and in assay [17] was 200 nM each time. Moreover, the IC50 in [19], in assay [21], in [22] and in assay [23] was 200 nM throughout.

With `Clc1ccc(CSc2nnc3c(n2)-c2cccc4cccc-3c24)c(Cl)c1`, the IC50 in [5], in assay [6] and in [7] was 30000 nM each time.

By GI50 is commonly meant the concentration that inhibits growth by half. What is called TGI is the concentration at which net growth stops. For `O=C1CNN(CSc2nc3ccc(I)cc3c(=O)n2Cc2ccccc2)C=N1`, in assay [27], the GI50 worked out at 22600 nM and the total growth inhibition concentration (TGI) came to 61400 nM. Further, the CC50 in [27] (read-out: LC50 (the source's name)) worked out at 89300 nM.

Turning to `CCn1nc(-c2cccs2)nc2c(=O)n(C)c(=O)nc1-2`, in assay [28], the IC50 stood at 900 nM.

With `Cc1nc2c(=O)n(C)c(=O)nc-2n(C)n1`, in assay [28], the IC50 was 900 nM.
